Results as given in US20240208997A1, “CYCLIC BENZIMIDAZOLE DERIVATIVES AS CGAS INHIBITORS” (Boehringer Ingelheim International GmbH, priority 2022, published 2024).

Experiments:
[1] = tested on: IFN induction in virus-stimulated THP1 cells; assay: Human cGAS cell assay, virus-stimulated THP1-Dual cells (THP1(vir) IC50); type: cell-based; conditions: THP-1, 18 h, Table 1, baculovirus-stimulated THP1-Dual cells, Lucia luciferase, 18 h, read-out: THP(vir) IC50
In short: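 THP1-Dual cells with an IRF-driven Lucia luciferase reporter, activated by baculovirus-delivered dsDNA to drive cGAS, with 8-point compound series from 10 µM top (~1:5 steps) in 1% DMSO. After 18 h at 37 °C, luminescence read; IC50 via 4-parameter logistic against virus-free low control.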

[2] = tested on: IFN induction in dsDNA-stimulated human whole blood; assay: Human whole blood assay (hWB IC50), dsDNA stimulated, IFNα2α production; type: cell-based; conditions: Table 1
Description: 6.3 Method: Human Whole Blood Assay (Human WB IC50)
For the detection of cellular cGAS activity human whole blood was stimulated by transfection with double stranded DNA. Pathway activity was monitored by measuring the IFNα2α production.
Compounds were delivered as 10 mM DMSO solution and serially diluted and transferred to the 96-well cell culture plate (Corning #3595), prefilled with 20 μl OptiMEM (Gibco, #11058-021) in each well, using an Echo acoustic dispenser. Typically, 8 concentrations were used with the highest concentration at 10 μM in the final assay volume followed by ^˜1:5 dilution steps. DMSO concentration was set to 0.1% in the final assay volume. The 96-well assay plate contained 10 test compounds, and DMSO in control wells.
Collection of human whole blood from 3 or more healthy donors (male or female, no medication for 7 days except contraceptive and thyroxine) as Na-Citrate blood (e.g. 3.8% in Monovettes from Sarstedt) was conducted in parallel. Whole blood was kept at room temperature for a maximum of 3 hours after collection until use in the assay. 160 μl of the whole blood samples was transferred to each well of the 96-well assay plates filled with compound/OptiMEM. All assay plates were prepared as duplicates with blood from different donors. Blood plates were kept at room temperature for 60 minutes and continuous shaking with 450 rpm, covered with the lid, but not sealed.
20 μl OptiMEM and 9.6:1 Fugene was added to all low control wells.
After covering assay plates with aera seals and the lid, blood plates were kept at room temperature for 30 minutes and continuous shaking with 450 rpm, followed by an overnight incubation of 22 h at 37° C. in the incubator, without shaking.
For the detection of IFNα-2α in human plasma, the biotinylated capture antibody (Antibody set IFNA2, Meso Scale Diagnostics #B21VH-3, including coating and capture antibody) was diluted 1:17.5 in Diluent 100 (Meso Scale Diagnostics #R50AA-4), according to the manufacturer's directions. U-Plex MSD GOLD 96-well Small Spot Strepavidin SECTOR Plates (Meso Scale Diagnostics #L45SA-5) were coated with 25 μl diluted capture antibody. Coated plates were incubated for 60 min at room temperature under continuous shaking at 700 rpm. MSD IFNα-2α plates were washed three times with 150 μl wash buffer (1× HBSS, 0.05% Tween).
After blocking the plates with 100 μl block solution/well (1× HBSS with 0.2% Tween, 2% BSA) for 60 min at room temperature and continuous shaking at 700 rpm, plates were emptied as dry as possible by dumping just before continuing with the human plasma.
Whole Blood assay plates were centrifuged at 1600 rpm for 10 minutes. 25 μl of supernatant was transferred with a pipetting robot from each whole blood plate to the corresponding IFNα-2α plate. Plates were sealed with microplate seals and kept at room temperature again under continuous shaking at 700 rpm for two hours.
Next MSD IFNα-2α plates were washed three times with 150 μl wash buffer (1× HBSS, 0.05% Tween), before adding 25 μl MSD SULFO-TAG IFNα-2α Antibody solution (1:100 diluted in Diluent 3 (Meso Scale Diagnostics #R50AP-2) to each well of the plates.
Afterwards plates were sealed with microplate seals and kept at room temperature again under continuous shaking at 700 rpm for two hours. Finally, MSD IFNα-2α plates were washed three times with 150 μl wash buffer (1× HBSS, 0.05% Tween). 150 μl 2× Read buffer was added to each well and plates were immediately measured with the MSD Sector S600 Reader using the vendor barcode.
Data Evaluation and Calculation:
For data evaluation and calculation, % control calculation of each well was based on the mean of high (DNA stimulated control) and mean of low (unstimulated control) controls by using the following formula:
[counts(sample)−counts(low))/(counts(high)−counts(low))]*100
The IC50-values were calculated using the standard 4 parameter logistic regression formula. […]

[3] = tested on: IFN induction in cGAMP-stimulated THP1 cells; assay: cGAMP stimulated counter cell assay in THP1-Dual cells (THP1(cGAMP) IC50); type: cell-based, human; conditions: Table 1; for IC50: Homo sapiens, THP-1, counter assay, 10 μM cGAMP stimulation, read-out: THP(cGAMP) IC50; for Ratio THP(cGAMP) IC50/THP(vir) IC50: selectivity for cGAS-inhibition
In short: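 THP1-Dual cells (5000/well, RPMI/10% FCS) stimulated with cGAMP to activate the pathway directly downstream of cGAS; compounds at 8 concentrations, top 10 μM, ~1:5 steps, 1% DMSO. After 18 h at 37 °C, Lucia luciferase luminescence read; IC50 from 4-parameter logistic fit normalised to low and high controls.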

| Structure (SMILES) | IC50 [1] [nM] | IC50 [2] [nM] | IC50 [3] [nM] | Ratio THP(cGAMP) IC50/THP(vir) IC50 [3] |
| --- | --- | --- | --- | --- |
| C[C@H]1CN2CC[C@@H]1n1c(nc3cc(Cl)ccc31)O[C@H]1C[C@@H](C(=O)O)N(C1)c1nc(nc3c1oc1ccccc13)CCOCCCC2=O [Example 1.02] | 2.8 | 5 | > 10000 | >3557 |
| O=C(O)[C@@H]1C[C@H]2CN1c1nc(nc3c1oc1ccccc13)CCOCCCC(=O)N1CCC(CC1)n1c(nc3ccc(F)cc31)O2 [Example 1.04] | 44 | 44 | > 10000 | >229 |
| C[C@H]1CN2CC[C@@H]1n1c(nc3ccccc31)O[C@H]1C[C@@H](C(=O)O)N(C1)c1nc(nc3c1oc1cc(Cl)ccc13)C(F)(F)CCCOCC2=O [Example 1.22] | 1.5 | 4 | > 10000 | >6579 |
| C[C@H]1CN2CC[C@@H]1n1c(nc3ccccc31)O[C@H]1C[C@@H](C(=O)O)N(C1)c1nc(nc3c1oc1ccccc13)CCCCCN(C)C2=O [Example 13.01] | 500 | 186 | 7300 | 15 |
